# Measured values published in patent US6596713B1, “Steroid esters and amides, process for their production and their pharmaceutical use” (priority 1994, dated 2003).
# Assay type: physicochemical
# Conditions: temperature in which 50 mg of substance is dissolved in 1 ml of a 1:4 benzyl benzoate/castor oil mixture; lower temperature = better solubility
row,Substance,Solubility [°C]
1,"(Z)-6′-(4-Cyanophenyl)-9,11α-dihydro-17β-hydroxy-17α-[3-[(1-oxononyl)oxy]-1-propenyl]-4′H-naphtho[3′,2′,1′:10,9,11]estr-4-en-3-one [Example 4]",23
2,"(Z)-6′-(4-Cyanophenyl)-17α-[3-(3-cyclopentyl-1-oxopropoxy)-1-propenyl]-9,11α-dihydro-17β-hydroxy-4′H-naphtho[3′,2′,1′:10,9,11]estr-4-en-3-one [Example 8]",23
3,"(Z)-6′-(4-Fluorophenyl)-17α-(3-hydroxyprop-1-enyl)-9, 11α-dihydro-17β-hydroxy-4′-naphtho]3′,2′,1′:10,9,11]estr-4-en-3-one [Ref. 4, reference compound]",100
4,"(Z)-9,11α-Dihydro-17α-[3-(1,4-dioxo-4-ethoxybutoxy)-1-propenyl]-17β-hydroxy-6′-(3-pyridinyl)-4′H-naphtho[3′,2′,1′:10,9,11]estr-4-en-3-one [Example 22]",50
5,"(Z)-9,11α-Dihydro-17α-[3-(3,3-dimethyl-1-oxobutoxy)-1-propenyl]-6′-(3-pyridinyl)-17βhydroxy-4′H-naphtho[3′,2′,1′:10,9,11]estr-4-en-3-one [Example 21]",50
6,"(Z)-9,11α-Dihydro-17β-hydroxy-17α-[3-(1-oxopropoxy)-1-propenyl]-6′-(3-pyridinyl)-4′H-naphtho[3′,2′,1′:10,9,11]estr-4-en-3-one [Example 18]",50
7,"[S-(Z)]-6′-(4-Cyanophenyl)-9,11α-dihydro-17α-[3-[2-[[(1,1-dimethylethoxy)carbonyl]amino]-3-methyl-1-oxobutoxy]-17β-hydroxy-4′H-naphtho[3′,2′,1′:10,9,11]estr-4-en-3-one [Example 17]",50
8,"[S-(Z)]-9,11α-Dihydro-17α-[3-[2-[[(1,1-dimethylethoxy)carbonyl]amino]-3-methyl-1-oxobutoxy]-1-propenyl]-17βhydroxy-6′-(3-pyridinyl)-4′H-naphtho[3′,2′,1′:10,9,11]estr-4-en-3-one [Example 25]",50
9,"[S-(Z)]-17α-[3-(2-Amino-1-oxopropoxy)-1-propenyl]-6′-(4-fluorophenyl)-9,11α-dihydro-17β-hydroxy-4′H-naphtho[3′,2′,1′:10,9,11]estr-4-en-3-one [Example 40]",50
10,"[S-(Z)]-17α-[3-(2-Amino-3-methyl-1-oxobutoxy)-1-propenyl]-6′-(4-cyanophenyl)-9,11α-dihydro-17β-hydroxy-4′H-naphtho[3′,2′,1′:10,9,11]estr-4-en-3-one [Example 16]",100

# The next lines start with the values.
row,Solubility [°C],Substance
1,50,"(Z)-6′-(4-Cyanophenyl)-9,11α-dihydro-17β-hydroxy-17α-[3-[(1-oxopentyl)oxy]-1-propenyl]-4′H-naphtho[3′,2′,1′:10,9,11]estr-4-en-3-one [Example 2]"
2,50,"(Z)-9,11α-Dihydro-17β-hydroxy-17α-[3-[(1-oxopentyl)oxy]-1-propenyl]-6′-(3-pyridinyl)-4′H-naphtho[3′,2′,1′:10,9,11]estr-4-en-3-one [Example 19]"
3,23,"[S-(Z)]-6′-(4-Fluorophenyl)-9,11α-dihydro-17α-[3-[2-[[(1,1-dimethylethoxy)carbonyl]amino]-1-oxopropoxy]-1-propenyl]-17β-hydroxy-4′H-naphtho[3′,2′,1′:10,9,11]estr-4-en-3-one [Example 41]"
4,50,"[S-(Z)]-9,11α-Dihydro-17α-[3-[2-[[(1,1-dimethylethoxy)carbonyl]amino]-1-oxopropoxy]-1-propenyl]-17β-hydroxy-6′-(3-pyridinyl)-4′H-naphtho[3′,2′,1′:10,9,11]estr-4-en-3-one [Example 24]"
5,23,"[S-(Z)]-9,11α-Dihydro-17α-[3-[[[(1,1-dimethylethoxy)carbonyl]amino]acetyloxy]-1-propenyl]-17β-hydroxy-6′-(3-pyridinyl)-4′H-naphtho[3′,2′,1′:10,9,11]estr-4-en-3-one [Example 35]"
